Experiment: main transition temperature (TM) of phosphatidylcholines
Format: physicochemical
Conditions: phosphatidylcholine; acyl chains on positions 1 and 2 of glycero-3-phosphocholine or 1 and 3 of glycero-2-phosphocholine
Method: The abovementioned preferred composition of the liposome according to the invention can be tailor-made for other temperature ranges by choice of components with the main transition temperature suitable in each case. In table 1, the main transition temperatures (TM) of phosphatidylcholines whose main transition temperatures lie in the range from 0 to 80° C. are indicated.

TM (main transition temperature)	SMILES
66 °C	CCCCCCCCCCCCCCCCCCCC(=O)OCC(COP(=O)([O-])OCC[N+](C)(C)C)OC(=O)CCCCCCCCCCCCCCCCCCC (stereo not drawn) [1,2-diarachinoyl-]
80 °C	CCCCCCCCCCCCCCCCCCCCCCCC(=O)OCC(COP(=O)([O-])OCC[N+](C)(C)C)OC(=O)CCCCCCCCCCCCCCCCCCCCCCC (stereo not drawn) [1,2-dilignoceroyl-]
23 °C	CCCCCCCCCCCCCC(=O)OCC(COP(=O)([O-])OCC[N+](C)(C)C)OC(=O)CCCCCCCCCCCCC (stereo not drawn) [1,2-dimyristoyl-]
41 °C	CCCCCCCCCCCCCCCC(=O)OC[C@H](COP(=O)([O-])OCC[N+](C)(C)C)OC(=O)CCCCCCCCCCCCCCC [1,2-dipalmitoyl-, 1,2-dipalmitoyl-sn-glycero-3-phosphocholine]
56 °C	CCCCCCCCCCCCCCCCCC(=O)OC[C@H](COP(=O)([O-])OCC[N+](C)(C)C)OC(=O)CCCCCCCCCCCCCCCCC [1,2-distearoyl-, 1,2-distearoyl-sn-glycero-3-phosphocholine]
14 °C	CCCCCCCC/C=C\CCCCCCCC(=O)OC(COC(=O)CCCCCCCCCCCCCCCCCCCCC)COP(=O)([O-])OCC[N+](C)(C)C (stereo not drawn) [1-behenoyl-2-oleoyl-]
11 °C	CCCCCCCCCCCCCCCC(=O)OCC(COP(=O)([O-])OCC[N+](C)(C)C)OC(=O)CCCCCCCCCCC (stereo not drawn) [1-palmitoyl-2-lauroyl-]
27 °C	CCCCCCCCCCCCCCCC(=O)OCC(COP(=O)([O-])OCC[N+](C)(C)C)OC(=O)CCCCCCCCCCCCC (stereo not drawn) [1-palmitoyl-2-myristoyl-]
5 °C	CCCCCCCC/C=C\CCCCCCCC(=O)OC(COC(=O)CCCCCCCCCCCCCCC)COP(=O)([O-])OCC[N+](C)(C)C (stereo not drawn) [1-palmitoyl-2-oleoyl-]
17 °C	CCCCCCCCCCCCCCCCCC(=O)OCC(COP(=O)([O-])OCC[N+](C)(C)C)OC(=O)CCCCCCCCCCC (stereo not drawn) [1-stearoyl-2-lauroyl-]
33 °C	CCCCCCCCCCCCCCCCCC(=O)OCC(COP(=O)([O-])OCC[N+](C)(C)C)OC(=O)CCCCCCCCCCCCC (stereo not drawn) [1-stearoyl-2-myristoyl-]
7 °C	CCCCCCCC/C=C\CCCCCCCC(=O)OC(COC(=O)CCCCCCCCCCCCCCCCC)COP(=O)([O-])OCC[N+](C)(C)C (stereo not drawn) [1-stearoyl-2-oleoyl-]
